In assay [1] the target is Leucine-rich repeat serine/threonine-protein kinase 2 (Homo sapiens, UniProt Q5S007). Briefly: Selectivity interaction (Adapta Assay) EUB0001632a LRRK2. To be noted: at 10 µM.
Assay [2] addresses Serine/threonine-protein kinase NIM1 (Homo sapiens, UniProt Q8IY84). Briefly: Selectivity interaction (Kinase panel (Z-LYTE Assay)) EUB0001632a NIM1K. To be noted: at 10 µM.
Assay [3] concerns Platelet-derived growth factor receptor alpha (Homo sapiens), P16234 [T674I]. Briefly: (§1) Selectivity interaction (Kinase panel (Carna Biosciences)) EUB0001542aTs PDGFRA. To be noted: at 1 µM.
Assay [4] has as its system Platelet-derived growth factor receptor alpha (Homo sapiens), P16234 [V561D]. The description is as §1. To be noted: at 1 µM.
Assay [5] has as its target Platelet-derived growth factor receptor alpha (Homo sapiens, UniProt P16234). Described as §1. To be noted: at 1 µM.
The target of assay [6] is Calcium/calmodulin-dependent protein kinase type 1G (Homo sapiens) (UniProt Q96NX5). As to the kind of experiment: Selectivity interaction (Ambit KINOMEscan and KiNATiv profiling in Jurkat cells) EUB0000090b CAMK1G. It is filed as cell-based. To be noted: at 1 µM.
Assay [7] deals with Interleukin-1 receptor-associated kinase 1 (Homo sapiens) (UniProt P51617). As to the kind of experiment: Selectivity interaction (Ambit KINOMEscan and KiNATiv profiling in Jurkat cells) EUB0000090b IRAK1. To be noted: at 1 µM. It is filed as cell-based.
Assay [8] has as its target Receptor tyrosine-protein kinase erbB-4 (Homo sapiens, UniProt Q15303). Briefly: Selectivity interaction (KinomeScan (DiscoverX)) EUB0000666a ERBB4. To be noted: at 10 µM.
In assay [9] the test system is Tyrosine-protein kinase ABL1 (Homo sapiens), P00519 [T315I]. As to the kind of experiment: Selectivity interaction (KinomeScan (DiscoverX)) EUB0000229b ABL1. To be noted: at 1 µM.
In assay [10] the target is T1, Serine/threonine-protein kinase ICK (Homo sapiens) (UniProt Q9UPZ9).
T1 sequence (whole entry): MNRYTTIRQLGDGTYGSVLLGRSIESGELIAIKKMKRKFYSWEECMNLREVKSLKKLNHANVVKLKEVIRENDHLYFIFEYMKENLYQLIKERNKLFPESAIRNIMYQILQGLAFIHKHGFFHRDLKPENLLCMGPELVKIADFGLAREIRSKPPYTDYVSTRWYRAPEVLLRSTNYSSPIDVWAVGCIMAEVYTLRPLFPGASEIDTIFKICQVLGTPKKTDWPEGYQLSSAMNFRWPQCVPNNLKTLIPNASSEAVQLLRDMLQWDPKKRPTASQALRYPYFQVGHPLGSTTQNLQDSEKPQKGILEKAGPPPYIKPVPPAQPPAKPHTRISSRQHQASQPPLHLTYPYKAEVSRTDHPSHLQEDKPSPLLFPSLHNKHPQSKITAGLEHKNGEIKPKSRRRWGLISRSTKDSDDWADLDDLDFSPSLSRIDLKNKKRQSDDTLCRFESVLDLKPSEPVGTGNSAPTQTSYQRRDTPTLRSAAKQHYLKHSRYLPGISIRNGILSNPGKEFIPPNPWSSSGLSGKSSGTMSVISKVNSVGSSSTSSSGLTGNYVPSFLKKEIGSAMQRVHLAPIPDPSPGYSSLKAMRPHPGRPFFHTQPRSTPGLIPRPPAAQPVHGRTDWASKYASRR
Briefly: Selectivity interaction (KinomeScan (DiscoverX)) EUB0000655a ICK. To be noted: at 10 µM.

Assay [11] deals with T2, Serine/threonine-protein kinase 17B (Homo sapiens) (UniProt O94768).
T2 sequence (whole entry): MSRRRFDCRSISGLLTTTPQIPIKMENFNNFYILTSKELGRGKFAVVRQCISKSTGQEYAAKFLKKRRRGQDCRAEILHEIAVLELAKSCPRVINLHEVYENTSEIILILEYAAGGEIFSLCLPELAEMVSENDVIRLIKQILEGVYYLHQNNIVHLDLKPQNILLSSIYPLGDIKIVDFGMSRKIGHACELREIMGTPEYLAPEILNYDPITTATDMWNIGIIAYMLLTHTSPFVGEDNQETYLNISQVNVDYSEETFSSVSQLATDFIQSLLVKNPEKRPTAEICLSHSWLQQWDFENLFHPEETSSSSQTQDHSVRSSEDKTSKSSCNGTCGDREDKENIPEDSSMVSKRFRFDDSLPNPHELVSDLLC
Briefly: Selectivity interaction (KinomeScan (DiscoverX)) EUB0001079a STK17B. To be noted: at 1 µM.

For assay [12], the target named is Casein kinase I isoform alpha (Homo sapiens, UniProt P48729). As to the kind of experiment: Selectivity interaction (KinomeScan (DiscoverX)) EUB0001619a CSNK1A1. To be noted: at 1 µM.
The target of another assay is SRSF protein kinase 1 (Homo sapiens, UniProt Q96SB4). As to the kind of experiment: Selectivity interaction (Kinase panel (literature)) EUB0001199aCl SRPK1. To be noted: at 1 µM.
Assay [13] has as its target T3, Serine/threonine-protein kinase D3 (Homo sapiens) (UniProt O94806).
T3 sequence (whole entry): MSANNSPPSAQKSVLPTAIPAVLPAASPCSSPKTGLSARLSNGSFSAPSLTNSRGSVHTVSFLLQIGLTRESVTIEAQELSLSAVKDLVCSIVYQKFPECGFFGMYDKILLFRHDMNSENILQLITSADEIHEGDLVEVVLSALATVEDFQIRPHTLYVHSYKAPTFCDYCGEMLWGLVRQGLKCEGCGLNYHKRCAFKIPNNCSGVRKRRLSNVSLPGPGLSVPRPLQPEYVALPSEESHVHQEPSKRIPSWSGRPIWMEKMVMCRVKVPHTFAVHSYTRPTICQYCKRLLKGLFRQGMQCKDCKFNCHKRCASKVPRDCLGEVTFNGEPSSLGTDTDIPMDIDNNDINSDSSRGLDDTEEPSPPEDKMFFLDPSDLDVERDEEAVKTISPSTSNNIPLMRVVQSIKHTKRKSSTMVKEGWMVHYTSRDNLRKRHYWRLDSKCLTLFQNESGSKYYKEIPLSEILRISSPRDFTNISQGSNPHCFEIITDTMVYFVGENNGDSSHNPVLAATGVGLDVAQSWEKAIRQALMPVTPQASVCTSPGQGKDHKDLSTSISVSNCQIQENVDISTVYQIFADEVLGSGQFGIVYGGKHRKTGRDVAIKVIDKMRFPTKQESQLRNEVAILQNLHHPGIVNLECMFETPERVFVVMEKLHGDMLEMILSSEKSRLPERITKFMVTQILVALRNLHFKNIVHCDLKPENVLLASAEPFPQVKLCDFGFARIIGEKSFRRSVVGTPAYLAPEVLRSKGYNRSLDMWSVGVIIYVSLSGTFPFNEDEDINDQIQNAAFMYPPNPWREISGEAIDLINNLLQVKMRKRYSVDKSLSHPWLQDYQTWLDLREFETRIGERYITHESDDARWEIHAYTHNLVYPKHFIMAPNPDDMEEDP
As to the kind of experiment: Selectivity interaction (ActivX KiNativ screen (kinase selectivity in THP-1 cell lysates)) EUB0000639a PRKD3. It is filed as subcellular. To be noted: lysate, at 1 µM.

Assay [14] concerns the target Nucleosome-remodeling factor subunit BPTF (Homo sapiens, UniProt Q12830). Briefly: Selectivity interaction (Bromodomain panel (DSF asssay)) EUB0000270b BPTF.
Assay [15] concerns the target Tyrosine-protein kinase receptor Tie-1 (Homo sapiens) (UniProt P35590). Briefly: Selectivity interaction (KinomeScan (DiscoverX)) EUB0000092b TIE1. To be noted: at 10 µM.
Assay [16] concerns the target Glycogen synthase kinase-3 beta (Homo sapiens, UniProt P49841). As to the kind of experiment: Selectivity interaction (Kinase panel (DSF assay)) EUB0001559a GSK3B.

Sequence of Serine/threonine-protein kinase NIM1 (Q8IY84 whole entry): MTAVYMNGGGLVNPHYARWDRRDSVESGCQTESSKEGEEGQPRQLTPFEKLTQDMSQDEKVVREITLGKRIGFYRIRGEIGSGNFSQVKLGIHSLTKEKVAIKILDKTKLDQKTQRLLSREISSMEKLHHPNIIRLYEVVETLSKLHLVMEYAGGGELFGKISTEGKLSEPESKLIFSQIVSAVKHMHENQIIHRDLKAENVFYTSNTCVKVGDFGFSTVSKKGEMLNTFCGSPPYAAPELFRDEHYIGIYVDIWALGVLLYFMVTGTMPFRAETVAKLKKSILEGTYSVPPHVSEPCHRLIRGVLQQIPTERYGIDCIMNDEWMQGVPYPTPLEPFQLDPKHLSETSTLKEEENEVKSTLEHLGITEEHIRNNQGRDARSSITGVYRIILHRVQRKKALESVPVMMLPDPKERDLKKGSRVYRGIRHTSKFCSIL
Sequence of Leucine-rich repeat serine/threonine-protein kinase 2 (Q5S007 whole entry): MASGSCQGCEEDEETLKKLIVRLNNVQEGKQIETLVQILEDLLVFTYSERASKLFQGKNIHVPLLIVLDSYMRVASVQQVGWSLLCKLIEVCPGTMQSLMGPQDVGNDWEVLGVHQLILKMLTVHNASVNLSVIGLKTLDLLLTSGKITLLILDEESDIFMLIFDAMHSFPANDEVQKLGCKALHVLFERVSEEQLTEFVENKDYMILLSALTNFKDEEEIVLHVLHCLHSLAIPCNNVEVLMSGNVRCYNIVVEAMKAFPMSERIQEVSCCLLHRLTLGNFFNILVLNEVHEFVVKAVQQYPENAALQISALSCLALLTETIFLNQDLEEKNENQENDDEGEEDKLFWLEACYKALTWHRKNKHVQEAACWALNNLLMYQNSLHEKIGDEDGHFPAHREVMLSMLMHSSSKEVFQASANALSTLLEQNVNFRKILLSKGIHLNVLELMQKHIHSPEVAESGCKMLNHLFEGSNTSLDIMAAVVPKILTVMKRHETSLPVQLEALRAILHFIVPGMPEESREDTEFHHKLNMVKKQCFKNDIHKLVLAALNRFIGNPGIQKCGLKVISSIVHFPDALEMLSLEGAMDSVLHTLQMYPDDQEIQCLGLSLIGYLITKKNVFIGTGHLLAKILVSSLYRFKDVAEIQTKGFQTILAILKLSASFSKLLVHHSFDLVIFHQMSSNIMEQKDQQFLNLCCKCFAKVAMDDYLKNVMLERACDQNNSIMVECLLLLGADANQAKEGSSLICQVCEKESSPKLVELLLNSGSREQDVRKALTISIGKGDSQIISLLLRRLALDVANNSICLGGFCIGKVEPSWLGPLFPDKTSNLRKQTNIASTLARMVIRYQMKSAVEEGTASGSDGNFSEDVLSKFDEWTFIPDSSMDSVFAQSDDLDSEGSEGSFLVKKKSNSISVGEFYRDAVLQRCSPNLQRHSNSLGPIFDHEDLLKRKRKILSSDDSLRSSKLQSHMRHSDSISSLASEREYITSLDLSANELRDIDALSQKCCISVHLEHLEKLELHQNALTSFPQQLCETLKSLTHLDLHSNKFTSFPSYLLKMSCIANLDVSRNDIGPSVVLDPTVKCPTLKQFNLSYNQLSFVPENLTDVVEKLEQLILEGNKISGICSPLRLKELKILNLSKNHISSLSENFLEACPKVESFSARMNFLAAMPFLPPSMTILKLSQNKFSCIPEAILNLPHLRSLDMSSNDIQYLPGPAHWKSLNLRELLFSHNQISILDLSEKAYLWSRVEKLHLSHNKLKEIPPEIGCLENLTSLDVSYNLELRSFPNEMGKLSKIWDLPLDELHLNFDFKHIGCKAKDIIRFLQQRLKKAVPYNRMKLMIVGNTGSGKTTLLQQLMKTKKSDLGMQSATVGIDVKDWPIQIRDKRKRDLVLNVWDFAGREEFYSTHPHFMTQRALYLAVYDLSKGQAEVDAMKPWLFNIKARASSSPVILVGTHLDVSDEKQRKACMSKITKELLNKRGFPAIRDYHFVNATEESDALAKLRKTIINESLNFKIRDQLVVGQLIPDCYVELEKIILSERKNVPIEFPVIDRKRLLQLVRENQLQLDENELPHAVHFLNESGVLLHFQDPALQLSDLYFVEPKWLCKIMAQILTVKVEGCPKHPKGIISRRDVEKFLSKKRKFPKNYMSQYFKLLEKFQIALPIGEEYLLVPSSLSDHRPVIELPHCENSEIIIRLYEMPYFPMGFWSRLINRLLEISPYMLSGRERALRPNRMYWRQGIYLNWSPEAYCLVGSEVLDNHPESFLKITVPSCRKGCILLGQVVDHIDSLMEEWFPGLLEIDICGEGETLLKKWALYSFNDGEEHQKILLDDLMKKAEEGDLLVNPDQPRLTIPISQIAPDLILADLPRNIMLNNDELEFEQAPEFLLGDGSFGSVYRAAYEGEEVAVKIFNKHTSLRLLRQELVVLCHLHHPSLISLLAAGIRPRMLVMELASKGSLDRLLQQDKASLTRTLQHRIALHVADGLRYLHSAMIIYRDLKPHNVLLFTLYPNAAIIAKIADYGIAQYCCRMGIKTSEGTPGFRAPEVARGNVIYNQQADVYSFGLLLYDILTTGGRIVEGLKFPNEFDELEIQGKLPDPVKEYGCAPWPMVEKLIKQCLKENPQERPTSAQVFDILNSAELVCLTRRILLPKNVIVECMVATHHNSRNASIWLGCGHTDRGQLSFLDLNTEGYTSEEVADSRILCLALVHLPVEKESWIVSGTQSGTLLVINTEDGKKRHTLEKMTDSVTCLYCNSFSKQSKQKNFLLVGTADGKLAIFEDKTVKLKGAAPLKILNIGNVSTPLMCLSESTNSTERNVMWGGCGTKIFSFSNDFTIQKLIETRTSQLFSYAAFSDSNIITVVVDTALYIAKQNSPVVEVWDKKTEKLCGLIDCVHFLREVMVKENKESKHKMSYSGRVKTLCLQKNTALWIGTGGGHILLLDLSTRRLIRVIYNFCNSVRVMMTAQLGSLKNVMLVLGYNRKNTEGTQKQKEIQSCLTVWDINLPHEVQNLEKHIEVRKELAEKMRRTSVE
Sequence of Platelet-derived growth factor receptor alpha (P16234 whole entry): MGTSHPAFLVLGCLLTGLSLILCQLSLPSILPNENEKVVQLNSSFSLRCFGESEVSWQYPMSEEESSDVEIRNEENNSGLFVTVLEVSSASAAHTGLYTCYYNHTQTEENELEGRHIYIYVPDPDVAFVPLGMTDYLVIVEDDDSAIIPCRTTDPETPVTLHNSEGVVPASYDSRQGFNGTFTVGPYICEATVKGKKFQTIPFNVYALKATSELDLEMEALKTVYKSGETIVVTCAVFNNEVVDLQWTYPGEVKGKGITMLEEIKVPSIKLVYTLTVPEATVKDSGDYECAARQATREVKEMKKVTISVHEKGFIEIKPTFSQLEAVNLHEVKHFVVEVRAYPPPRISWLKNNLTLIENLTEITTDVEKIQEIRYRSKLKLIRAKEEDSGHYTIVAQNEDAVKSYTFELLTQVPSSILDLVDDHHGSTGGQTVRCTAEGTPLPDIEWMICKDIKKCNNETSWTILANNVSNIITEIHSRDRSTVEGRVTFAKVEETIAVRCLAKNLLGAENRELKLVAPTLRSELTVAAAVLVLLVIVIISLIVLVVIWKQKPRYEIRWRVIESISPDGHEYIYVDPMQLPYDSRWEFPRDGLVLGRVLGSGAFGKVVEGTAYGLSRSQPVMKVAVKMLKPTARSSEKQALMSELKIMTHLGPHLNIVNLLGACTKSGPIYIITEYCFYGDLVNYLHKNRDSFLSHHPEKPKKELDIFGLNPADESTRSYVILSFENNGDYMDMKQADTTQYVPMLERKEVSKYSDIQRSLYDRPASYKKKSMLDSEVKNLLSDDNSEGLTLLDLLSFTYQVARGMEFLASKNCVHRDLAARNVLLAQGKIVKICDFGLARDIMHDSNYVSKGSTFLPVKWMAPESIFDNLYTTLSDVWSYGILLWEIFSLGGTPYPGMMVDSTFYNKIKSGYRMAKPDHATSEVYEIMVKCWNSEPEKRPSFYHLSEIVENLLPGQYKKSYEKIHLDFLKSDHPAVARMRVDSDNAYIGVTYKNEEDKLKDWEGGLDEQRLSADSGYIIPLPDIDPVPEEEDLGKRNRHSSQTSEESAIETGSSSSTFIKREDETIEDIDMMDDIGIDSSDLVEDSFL
Sequence of Interleukin-1 receptor-associated kinase 1 (Homo sapiens) (P51617 whole entry, looked up): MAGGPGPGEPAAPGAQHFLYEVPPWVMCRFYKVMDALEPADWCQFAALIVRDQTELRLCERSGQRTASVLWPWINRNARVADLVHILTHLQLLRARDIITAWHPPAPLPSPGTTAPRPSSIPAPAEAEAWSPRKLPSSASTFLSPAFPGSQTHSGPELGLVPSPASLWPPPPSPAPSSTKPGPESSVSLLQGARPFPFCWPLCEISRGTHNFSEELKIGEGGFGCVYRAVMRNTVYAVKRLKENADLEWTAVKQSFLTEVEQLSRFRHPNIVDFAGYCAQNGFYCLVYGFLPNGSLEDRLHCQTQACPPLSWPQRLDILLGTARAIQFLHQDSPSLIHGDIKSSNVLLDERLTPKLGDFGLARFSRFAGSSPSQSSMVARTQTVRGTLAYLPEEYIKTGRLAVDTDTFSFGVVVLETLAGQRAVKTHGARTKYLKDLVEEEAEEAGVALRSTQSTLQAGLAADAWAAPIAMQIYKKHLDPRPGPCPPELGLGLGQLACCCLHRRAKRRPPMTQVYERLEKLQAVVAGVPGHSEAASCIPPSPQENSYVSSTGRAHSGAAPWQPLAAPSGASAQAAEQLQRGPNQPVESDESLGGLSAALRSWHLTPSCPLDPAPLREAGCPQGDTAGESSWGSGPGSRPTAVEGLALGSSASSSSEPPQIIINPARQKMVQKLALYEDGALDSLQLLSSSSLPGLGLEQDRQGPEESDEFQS
Sequence of Platelet-derived growth factor receptor alpha (Homo sapiens), P16234 [T674I] (P16234 whole entry T674I): as the sequence (P16234 whole entry) above, with T674I counted along it
Sequence of Platelet-derived growth factor receptor alpha (Homo sapiens), P16234 [V561D] (P16234 whole entry V561D): as the sequence (P16234 whole entry) above, with V561D counted along it

Regarding `Cn1cc(-n2cnc3c(NCc4nc5cc(Cl)c(Cl)cc5[nH]4)nc(N4CCOCC4)nc32)cn1`, the % of inhibition in assay [1] turned out to be 100%. In addition, the % of control in assay [2] turned out to be 4.54%.
Regarding `Cn1cc(Nc2nccc(N3CC4CCC(C3)N4C(=O)[C@@H]3CC3(F)F)n2)cn1`, the % of inhibition in [3] is 78%; in assay [4], 60%; in assay [5] it was 70%.
Regarding `CN(C)C/C=C/C(=O)Nc1ccc(C(=O)N2CCCC(Nc3ncc(Cl)c(-c4c[nH]c5ccccc45)n3)C2)cc1` (configuration not stated), the % of control in assay [6] is 81%; in assay [7], 97%.
`O=C(NOC[C@H](O)CO)c1ccc(F)c(F)c1Nc1ccc(I)cc1F` yielded a % of control in [8] of 100%.
For the molecule `COc1cc(N(C)c2ccnc3ccc(C(F)(F)F)cc23)cc(OC)c1OC`, the % binding in assay [9] came to 85%.
`CN(C)CCOc1ccc(-c2nc(-c3ccncc3)c(-c3ccc4c(c3)CC/C4=N\O)[nH]2)cc1` registered a % of control in assay [10] of 100%.
In the case of `Nc1cnc(N2CCc3cc(S(=O)(=O)Nc4c(F)cc(Cl)cc4F)cc(N4CCCC4=O)c32)nc1` [TP-020n], the % of control in [11] came out at 100%.
For the molecule `N#Cc1cccc(-c2c[nH]c3ncnc(N4CCOCC4)c23)c1`, the % of control in [12] amounted to 100%.
In the case of `CN1Cc2nccc(-c3cn(C)nc3-c3ccc(F)cc3)c2C1=O`, at SRSF protein kinase 1, the % of inhibition stood at 8%.
As for `CC[C@@H]1[C@H](F)C(=O)N[C@@H]1COc1nccc2cc(C(N)=O)c(OC)cc12` [ZIMLOVISERTIB], the % of inhibition in assay [13] turned out to be 1.2%.
`Cc1cc(CN)cc(C)c1-c1ncn(C)c1-c1cncn1C`: the dTM in assay [14] is -2.3 K.
In turn, `CCC(=O)N1CCN(c2ccc(-n3c(=O)ccc4cnc5ccc(-c6cnc7ccccc7c6)cc5c43)cc2C(F)(F)F)CC1` had a % of control in [15] of 100%.
Regarding `CN(C(=O)c1cnn2cccnc12)c1cc2c(cc1N1CCOCC1)C(=O)N(C[C@@H](F)C(C)(C)O)C2`, the dTM in [16] was -0.4 K.

(Values after ChEMBL document CHEMBL5465560, “Selectivity Literature for EUbOPEN Chemogenomic Library” (2024).)
